The text below walks through data of patent US7576222B2, “Alkynyl-containing tryptophan derivative inhibitors of TACE/matrix metalloproteinase” (priority 2004, dated 2009).

pIC50: −log10 of the molar value.

In one experiment the target is T1, catalytic domain of the recombinant TACE protein (Homo sapiens, UniProt P78536).
T1 construct: The catalytic domain of the recombinant TACE protein was expressed and purified; made in house
T1 sequence (P78536 223-474 limits assumed): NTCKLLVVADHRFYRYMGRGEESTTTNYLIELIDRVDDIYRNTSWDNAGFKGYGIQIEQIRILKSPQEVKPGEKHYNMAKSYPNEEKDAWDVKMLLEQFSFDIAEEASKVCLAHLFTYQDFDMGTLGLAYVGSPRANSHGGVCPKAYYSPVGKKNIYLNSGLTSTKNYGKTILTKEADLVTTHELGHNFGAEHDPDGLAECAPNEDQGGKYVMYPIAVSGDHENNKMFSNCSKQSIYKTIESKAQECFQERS
Put plainly: TACE FRET assay using TACE cat. Type of experiment: biochemical.
Settings: not given
The method, boiled down:
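Initial fluorescence rate of Abz-[sequence]-Dpa pro-TNF-α peptide cleavage (substrate from 2 mM stock) read after adding substrate to enzyme (1 ug/ml) preincubated 10 min, room temperature, with inhibitor.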
As usually defined, the pIC50 is the IC50 on a negative log10 scale, so that one unit is a factor of ten. On to `CC#CCOc1ccc(S(=O)(=O)N[C@@H](Cc2c(C)n(Cc3ccccc3)c3ccc(OC)cc23)C(=O)O)cc1` [Example 185, 1-benzyl-N-{[4-(but-2-ynyloxy)phenyl]sulfonyl}-5-methoxy-2-methyltryptophan], for which the pIC50 was 6.70.

`CC#CCOc1ccc(S(=O)(=O)N[C@@H](Cc2c(C)n(Cc3ccccc3C)c3ccc(OC)cc23)C(=O)O)cc1` [Example 186, N-{[4-(but-2-ynyloxy)phenyl]sulfonyl}-5-methoxy-2-methyl-1-(2-methylbenzyl)tryptophan]: the pIC50 was 6.55.

With `CC#CCOc1ccc(S(=O)(=O)N[C@@H](Cc2c(C)n(Cc3ccc(C)cc3)c3ccc(OC)cc23)C(=O)O)cc1` [Example 188, N-{[4-(but-2-ynyloxy)phenyl]sulfonyl}-5-methoxy-2-methyl-1-(4-methylbenzyl)tryptophan], the pIC50 is 6.57.

With `CC#CCOc1ccc(S(=O)(=O)N[C@@H](Cc2c(C)n(Cc3cccc(OC)c3)c3ccc(OC)cc23)C(=O)O)cc1` [Example 190, N-{[4-(but-2-ynyloxy)phenyl]sulfonyl}-5-methoxy-1-(3-methoxybenzyl)-2-methyltryptophan], the pIC50 was 6.59.

Regarding `CC#CCOc1ccc(S(=O)(=O)N[C@@H](Cc2c(C)n(Cc3ccccc3C(F)(F)F)c3ccc(OC)cc23)C(=O)O)cc1` [Example 193, N-{[4-(but-2-ynyloxy)phenyl]sulfonyl}-5-methoxy-2-methyl-1-[2-(trifluoromethyl)benzyl]tryptophan], the pIC50 was 6.35.

With `CC#CCOc1ccc(S(=O)(=O)N[C@@H](Cc2c(C)n(Cc3ccccc3F)c3ccc(OC)cc23)C(=O)O)cc1` [Example 197, N-{[4-(but-2-ynyloxy)phenyl]sulfonyl}-1-(2-fluorobenzyl)-5-methoxy-2-methyltryptophan], the pIC50 was 6.52.

For the compound `CC#CCOc1ccc(S(=O)(=O)N[C@@H](Cc2c(C)n(Cc3cccc(F)c3)c3ccc(OC)cc23)C(=O)O)cc1` [Example 198, N-{[4-(but-2-ynyloxy)phenyl]sulfonyl}-1-(3-fluorobenzyl)-5-methoxy-2-methyltryptophan], the pIC50 is 6.47.

For `CC#CCOc1ccc(S(=O)(=O)N[C@@H](Cc2c(C)n(Cc3ccc(Cl)cc3)c3ccc(OC)cc23)C(=O)O)cc1` [Example 201, N-{[4-(but-2-ynyloxy)phenyl]sulfonyl}-1-(4-chlorobenzyl)-5-methoxy-2-methyltryptophan], the pIC50 is 6.54.

Regarding `CC#CCOc1ccc(S(=O)(=O)N[C@@H](Cc2c(C)n(Cc3cccc(C#N)c3)c3ccc(OC)cc23)C(=O)O)cc1` [Example 204, N-{[4-(but-2-ynyloxy)phenyl]sulfonyl}-1-(3-cyanobenzyl)-5-methoxy-2-methyltryptophan], the pIC50 was 6.32.

Take `CC#CCOc1ccc(S(=O)(=O)N[C@@H](Cc2c(C)n(Cc3ccc(C#N)cc3)c3ccc(OC)cc23)C(=O)O)cc1` [Example 205, N-{[4-(but-2-ynyloxy)phenyl]sulfonyl}-1-(4-cyanobenzyl)-5-methoxy-2-methyltryptophan]: the pIC50 is 6.33.

Staying with this experiment, now noted: read-out: TACE Inhibition (%).
The inhibition is the relative decrease from the control value, in per cent. Consider `CC#CCOc1ccc(S(=O)(=O)N[C@@H](Cc2c(C)n(Cc3ccc(C(C)C)cc3)c3ccccc23)C(=O)O)cc1` [Example 157, N-{[4-(but-2-ynyloxy)phenyl]sulfonyl}-1-(4-isopropylbenzyl)-2-methyltryptophan], for which the inhibition at 1 µM was 34.2%.

For `CC#CCOc1ccc(S(=O)(=O)N[C@@H](Cc2c(C)n(Cc3ccccc3C#N)c3ccccc23)C(=O)O)cc1` [Example 158, N-{[4-(but-2-ynyloxy)phenyl]sulfonyl}-1-(2-cyanobenzyl)-2-methyltryptophan], the inhibition at 1 µM was determined as 72.1%.

With `CC#CCOc1ccc(S(=O)(=O)N[C@@H](Cc2c(C)n(Cc3cccc(C)c3)c3ccc(OC)cc23)C(=O)O)cc1` [Example 187, N-{[4-(but-2-ynyloxy)phenyl]sulfonyl}-5-methoxy-2-methyl-1-(3-methylbenzyl)tryptophan], the inhibition at 1 µM came out at 78.8%.

With `CC#CCOc1ccc(S(=O)(=O)N[C@@H](Cc2c(C)n(Cc3ccccc3OC)c3ccc(OC)cc23)C(=O)O)cc1` [Example 189, N-{[4-(but-2-ynyloxy)phenyl]sulfonyl}-5-methoxy-1-(2-methoxybenzyl)-2-methyltryptophan], the inhibition at 1 µM amounted to 75.6%.

Regarding `CC#CCOc1ccc(S(=O)(=O)N[C@@H](Cc2c(C)n(Cc3ccc(OC)cc3)c3ccc(OC)cc23)C(=O)O)cc1` [Example 191, N-{[4-(but-2-ynyloxy)phenyl]sulfonyl}-5-methoxy-1-(4-methoxybenzyl)-2-methyltryptophan], the inhibition at 1 µM worked out at 77.5%.

On to `CC#CCOc1ccc(S(=O)(=O)N[C@@H](Cc2c(C)n(Cc3cc(OC)cc(OC)c3)c3ccc(OC)cc23)C(=O)O)cc1` [Example 192, N-{[4-(but-2-ynyloxy)phenyl]sulfonyl}-1-(3,5-dimethoxybenzyl)-5-methoxy-2-methyltryptophan], for which the inhibition at 1 µM is 80%.

For `CC#CCOc1ccc(S(=O)(=O)N[C@@H](Cc2c(C)n(Cc3cccc(OC(F)(F)F)c3)c3ccc(OC)cc23)C(=O)O)cc1` [Example 194, N-{[4-(but-2-ynyloxy)phenyl]sulfonyl}-5-methoxy-2-methyl-1-[3-(trifluoromethoxy)benzyl]tryptophan], the inhibition at 1 µM was found to be 80.8%.

Consider `CC#CCOc1ccc(S(=O)(=O)N[C@@H](Cc2c(C)n(Cc3ccc(C(F)(F)F)cc3)c3ccc(OC)cc23)C(=O)O)cc1` [Example 195, N-{[4-(but-2-ynyloxy)phenyl]sulfonyl}-5-methoxy-2-methyl-1-[4-(trifluoromethyl)benzyl]tryptophan], for which the inhibition at 1 µM came out at 78.3%.

`CC#CCOc1ccc(S(=O)(=O)N[C@@H](Cc2c(C)n(Cc3ccc(OC(F)(F)F)cc3)c3ccc(OC)cc23)C(=O)O)cc1` [Example 196, N-{[4-(but-2-ynyloxy)phenyl]sulfonyl}-5-methoxy-2-methyl-1-[4-(trifluoromethoxy)benzyl]tryptophan]: the inhibition at 1 µM worked out at 72.8%.

Consider `CC#CCOc1ccc(S(=O)(=O)N[C@@H](Cc2c(C)n(Cc3cc(F)cc(F)c3)c3ccc(OC)cc23)C(=O)O)cc1` [Example 200, N-{[4-(but-2-ynyloxy)phenyl]sulfonyl}-1-(3,5-difluorobenzyl)-5-methoxy-2-methyltryptophan], for which the inhibition at 1 µM stood at 80.5%.

Take `CC#CCOc1ccc(S(=O)(=O)N[C@@H](Cc2c(C)n(Cc3ccc(C(C)C)cc3)c3ccc(OC)cc23)C(=O)O)cc1` [Example 202, N-{[4-(but-2-ynyloxy)phenyl]sulfonyl}-1-(4-isopropylbenzyl)-5-methoxy-2-methyltryptophan]: the inhibition at 1 µM was 67%.

As to `CC#CCOc1ccc(S(=O)(=O)N[C@@H](Cc2c(C)n(Cc3ccccc3C#N)c3ccc(OC)cc23)C(=O)O)cc1` [Example 203, N-{[4-(but-2-ynyloxy)phenyl]sulfonyl}-1-(2-cyanobenzyl)-5-methoxy-2-methyltryptophan], the inhibition at 1 µM stood at 56.8%.

Take `CC#CCOc1ccc(S(=O)(=O)N[C@@H](Cc2c(C)n(Cc3ccc(C(=O)O)cc3)c3ccc(OC)cc23)C(=O)O)cc1` [Example 207, N-{[4-(but-2-ynyloxy)phenyl]sulfonyl}-1-(4-carboxybenzyl)-5-methoxy-2-methyltryptophan]: the inhibition at 1 µM came to 62.1%.

With `CC#CCOc1ccc(S(=O)(=O)N[C@@H](Cc2c(C)n(C)c3ccc(OC)cc23)C(=O)O)cc1` [Example 208, N-{[4-(but-2-ynyloxy)phenyl]sulfonyl}-5-methoxy-1,2-dimethyltryptophan], the inhibition at 1 µM worked out at 61.8%.
